Data published in ChEMBL document CHEMBL1201862, “PubChem BioAssay data set” (2004).
Activity calls are given as the source filed them.

What was measured:
HEK293 = assay: EBV LMP1 TES2 canonical NF-kB signalling blockers – cell-based, HEK293, luciferase, cherry-pick, dose response (AID 588343); assay type: functional; details: Homo sapiens
H4 = assay: Luminescence Cell-Based Dose Response HTS to Identify Activators of 5'UTR Stem-Loop Driven Prion Protein mRNA Translation in H4 Neuroglioblastoma Cells. [Related pubchem assays: 1829 (Project Summary), 1814 (Primary HTS)]; assay type: functional; details: Homo sapiens
[1] = microbe, parasite or virus in culture; assay type: functional; details: Mycobacterium tuberculosis
[2] = Luminescence Cell-Based Dose Confirmation HTS to Identify Activators of 5'UTR Stem-Loop Driven Alpha-Synuclein mRNA Translation in H4 Neuroglioblastoma Cells. [Related pubchem assays: 1829 (Project Summary), 1814 (Primary HTS)]; assay type: functional
Large T antigen = Large T antigen (Simian virus 40, UniProt P03070); assay type: functional, Betapolyomavirus macacae;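 note: Confirmatory-stage PubChem screen for compounds that inhibit SV40 T antigen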
[3] = loss of viability in HepG2 cells – cell-based, CellTiter-Glo, cherry-picked, cytotoxicity control for Shn3 inhibitor project, dose response (AID 624134); assay type: functional
[4] = reduction of Shn3 3'UTR-driven luciferase in osteoblasts – cell-based, Clone20 osteoblasts, firefly luciferase, cherry-picked, dose response (AID 624132); assay type: functional;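 note: firefly luciferase luminescence from reporter carrying the Shn3 3'UTR in osteoblasts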
Genome polyprotein = Genome polyprotein (dengue virus type 2, UniProt P29990); assay: flavivirus cap methylation enzyme inhibition – biochemical, confirmation dose response, primary screen (AID 588689); assay type: functional
[5] = non-specific 3'UTR reporter inhibition in Clone20-Shn3RL – cell-based, Renilla luciferase, cherry-picked, counter-screen for Shn3 inhibitor project, dose response (AID 624133); assay type: functional
Vero = assay: viability of Vero cells under compound – cytotoxicity control for flavivirus capping enzyme inhibitors (AID 588742); assay type: functional; details: Chlorocebus sabaeus
[6] = target: T1, Carboxy-terminal domain RNA polymerase II polypeptide A small phosphatase 1 (Homo sapiens, UniProt Q9GZU7); assay: CTDSP1 inhibitors, concentration-response, biochemical, absorbance readout, ultra-high-throughput screen actives (AID 540297); assay type: functional
T1 sequence (Q9GZU7 whole entry): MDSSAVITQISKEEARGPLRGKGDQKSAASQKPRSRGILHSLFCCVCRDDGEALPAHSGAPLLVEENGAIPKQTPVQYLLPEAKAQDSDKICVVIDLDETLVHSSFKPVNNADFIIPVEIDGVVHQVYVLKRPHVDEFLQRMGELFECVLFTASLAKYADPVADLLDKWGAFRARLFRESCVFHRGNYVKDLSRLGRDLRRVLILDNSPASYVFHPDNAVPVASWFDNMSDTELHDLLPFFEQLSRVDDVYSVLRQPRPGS

[7] = target: T2, Heat shock factor protein 1 (Mus musculus, UniProt P38532); assay: decrease of HSF1-responsive luciferase luminescence – cell-based, NIH3T3, dose retest, confirmation (AID 2382); assay type: functional;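 note: NIH3T3 fibroblasts with HSF1-driven luciferase reporter stressed by proteasome inhibitor MG132; luminescence from HSF1-driven luciferase expression after 8 hours of MG132 stress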
T2 sequence (P38532 whole entry): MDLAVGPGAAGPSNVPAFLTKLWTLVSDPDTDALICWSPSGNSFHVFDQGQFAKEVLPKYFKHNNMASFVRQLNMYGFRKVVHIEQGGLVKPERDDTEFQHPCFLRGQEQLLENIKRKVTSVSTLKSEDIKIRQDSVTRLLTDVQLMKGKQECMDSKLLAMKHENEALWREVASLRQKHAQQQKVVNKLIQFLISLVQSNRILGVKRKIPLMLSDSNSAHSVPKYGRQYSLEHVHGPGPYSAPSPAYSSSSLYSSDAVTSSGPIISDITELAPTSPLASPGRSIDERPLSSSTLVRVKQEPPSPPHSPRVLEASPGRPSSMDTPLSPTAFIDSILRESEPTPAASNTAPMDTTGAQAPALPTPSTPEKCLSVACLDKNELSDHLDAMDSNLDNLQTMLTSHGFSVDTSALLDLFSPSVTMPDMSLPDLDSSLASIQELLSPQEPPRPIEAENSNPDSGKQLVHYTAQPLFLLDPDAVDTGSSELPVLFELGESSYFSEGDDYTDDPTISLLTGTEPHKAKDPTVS

[8] = target: FAD-linked sulfhydryl oxidase ALR (Homo sapiens, UniProt P55789); assay: ALR-catalysed DTT oxidation blockers – biochemical, H2O2 detection, luminescence, cherry-pick, dose response (AID 493248)
[9] = viability of uninfected HEp-2 cells – cell-based, HTS, cytotoxicity control for RSV inhibitor project, dose response (AID 2410); assay type: functional; details: human respiratory syncytial virus

Chain of Large T antigen (P03070 whole entry): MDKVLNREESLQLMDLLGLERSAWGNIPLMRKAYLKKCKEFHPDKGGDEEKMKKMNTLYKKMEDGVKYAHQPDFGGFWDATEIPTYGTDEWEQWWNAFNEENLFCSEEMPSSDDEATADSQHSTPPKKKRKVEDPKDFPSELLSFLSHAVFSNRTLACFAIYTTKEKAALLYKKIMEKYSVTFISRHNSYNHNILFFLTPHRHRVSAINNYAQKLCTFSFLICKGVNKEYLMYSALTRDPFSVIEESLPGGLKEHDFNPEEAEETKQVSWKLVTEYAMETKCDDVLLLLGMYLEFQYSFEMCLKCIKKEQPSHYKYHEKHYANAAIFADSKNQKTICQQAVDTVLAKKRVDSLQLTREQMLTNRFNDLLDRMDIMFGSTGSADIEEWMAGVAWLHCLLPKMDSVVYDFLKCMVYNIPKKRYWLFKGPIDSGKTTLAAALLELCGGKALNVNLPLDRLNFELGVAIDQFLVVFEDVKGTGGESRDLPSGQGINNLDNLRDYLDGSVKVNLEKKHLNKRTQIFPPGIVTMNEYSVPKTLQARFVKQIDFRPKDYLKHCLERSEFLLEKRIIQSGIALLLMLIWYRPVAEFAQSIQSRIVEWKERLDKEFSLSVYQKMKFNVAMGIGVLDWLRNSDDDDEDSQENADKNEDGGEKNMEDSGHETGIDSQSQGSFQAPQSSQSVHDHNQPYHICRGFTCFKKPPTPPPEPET
Chain of FAD-linked sulfhydryl oxidase ALR (P55789 whole entry): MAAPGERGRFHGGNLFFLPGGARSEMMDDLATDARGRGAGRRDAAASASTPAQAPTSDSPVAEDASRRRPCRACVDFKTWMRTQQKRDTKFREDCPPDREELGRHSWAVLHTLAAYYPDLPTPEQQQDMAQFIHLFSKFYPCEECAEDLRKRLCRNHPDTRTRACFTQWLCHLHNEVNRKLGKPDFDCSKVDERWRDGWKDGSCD
Chain of Genome polyprotein (P29990 2492-3391 limits assumed): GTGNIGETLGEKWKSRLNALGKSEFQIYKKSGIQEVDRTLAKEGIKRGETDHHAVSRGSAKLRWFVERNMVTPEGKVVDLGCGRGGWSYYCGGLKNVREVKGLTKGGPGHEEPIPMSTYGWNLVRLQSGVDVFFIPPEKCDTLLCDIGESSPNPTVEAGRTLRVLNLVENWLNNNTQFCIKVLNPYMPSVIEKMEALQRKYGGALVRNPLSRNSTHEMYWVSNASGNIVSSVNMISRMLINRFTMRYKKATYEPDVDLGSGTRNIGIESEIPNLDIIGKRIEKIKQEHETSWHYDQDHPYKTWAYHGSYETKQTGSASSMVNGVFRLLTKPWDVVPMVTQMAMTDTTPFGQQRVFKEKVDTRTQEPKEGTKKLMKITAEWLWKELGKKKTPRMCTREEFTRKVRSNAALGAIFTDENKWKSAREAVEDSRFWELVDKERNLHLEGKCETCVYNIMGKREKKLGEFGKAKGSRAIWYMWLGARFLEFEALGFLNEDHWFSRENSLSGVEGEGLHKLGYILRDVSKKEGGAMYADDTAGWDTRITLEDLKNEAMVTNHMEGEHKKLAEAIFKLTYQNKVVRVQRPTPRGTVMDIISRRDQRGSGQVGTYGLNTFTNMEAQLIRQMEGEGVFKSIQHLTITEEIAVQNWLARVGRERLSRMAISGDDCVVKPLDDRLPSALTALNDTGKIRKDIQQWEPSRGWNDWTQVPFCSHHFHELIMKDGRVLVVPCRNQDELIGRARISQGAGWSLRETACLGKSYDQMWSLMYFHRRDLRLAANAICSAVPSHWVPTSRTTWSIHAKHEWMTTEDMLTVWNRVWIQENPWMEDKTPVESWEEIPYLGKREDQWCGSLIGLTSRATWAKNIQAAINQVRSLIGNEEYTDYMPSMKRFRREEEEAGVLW

Cc1nc2sc(C(N)=O)c(N)c2c2c1CCCC2
AC50 (HEK293): 10.9 µM (active)

CC(C)(C)C1CCc2c(sc3nc(SCC(N)=O)nc(N)c23)C1 (configuration not stated)
EC50 (H4): 24.9 µM (active)
CC50 [1]: > 40 µM (active)
EC50 [2]: 27.3 µM (active)

CCOc1ccccc1N=C(S)N1CCN(c2ccc(O)cc2)CC1
IC50 (Large T antigen): 6.28 µM (active)

CCOC(=O)c1c2c(n(-c3ccc(OC)cc3)c1C)C(=O)C(=O)c1ccccc1-2
AC50 [3]: 3.74 µM (active)
AC50 [4]: 3.15 µM (active)
IC50 (Genome polyprotein): 47 µM (active)
AC50 [5]: 3 µM (active)
CC50 (Vero): 2.89 µM (active)

Cc1nn(-c2ccccc2)c2nc(O)c(CNc3ccc(N4CCOCC4)cc3)cc12
IC50 (Large T antigen): 5.01 µM (active)

CC(=O)c1sc(C(=O)O)c(-c2ccco2)c1-c1ccco1
IC50 [6]: 15.5 µM (active)

COc1ccc(C(=O)Oc2ccc(/C=N/O)cc2)cc1
EC50 [7]: > 195 µM (not active)
AC50 [8]: 0.247 µM (active)

C/C(=N\NC(=O)c1ccccc1O)c1ccc(NC(=O)c2ccccc2)cc1
IC50 [6]: 7.56 µM (active)

CCOC(=O)c1[nH]nc(-c2cc(CC)c(O)cc2O)c1-c1cscn1
IC50 (Large T antigen): 20.6 µM (active)
CC50 [9]: 22.6 µM (active)
